Measurements published in ChEMBL document CHEMBL1131205, “Rational design and synthesis of novel, potent bis-phenylamidine carboxylate factor Xa inhibitors” (J Med Chem, 1998).

How the values were obtained:
Prothrombin = Prothrombin (Homo sapiens, UniProt P00734); test: In vitro inhibition of thrombin
Coagulation factor X = Coagulation factor X (Homo sapiens, UniProt P00742); test: In vitro inhibition of Coagulation factor X
Serine protease 1 = Serine protease 1 (Homo sapiens, UniProt P07477); test: In vitro inhibition of trypsin
Chain of Serine protease 1 (P07477 whole entry): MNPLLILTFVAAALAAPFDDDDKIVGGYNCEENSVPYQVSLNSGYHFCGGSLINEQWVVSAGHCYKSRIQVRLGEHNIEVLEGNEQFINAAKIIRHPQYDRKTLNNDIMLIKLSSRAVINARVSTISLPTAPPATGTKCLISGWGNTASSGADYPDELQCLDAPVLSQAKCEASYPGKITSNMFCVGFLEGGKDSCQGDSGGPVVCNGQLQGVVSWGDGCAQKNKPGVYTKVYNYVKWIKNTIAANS

Chain of Coagulation factor X (P00742 41-179 limits assumed): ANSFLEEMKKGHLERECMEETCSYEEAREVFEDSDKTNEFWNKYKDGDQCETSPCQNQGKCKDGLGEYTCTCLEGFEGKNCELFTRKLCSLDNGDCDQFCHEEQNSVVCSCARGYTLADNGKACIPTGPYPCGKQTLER
Chain of Coagulation factor X (P00742 235-488 limits assumed): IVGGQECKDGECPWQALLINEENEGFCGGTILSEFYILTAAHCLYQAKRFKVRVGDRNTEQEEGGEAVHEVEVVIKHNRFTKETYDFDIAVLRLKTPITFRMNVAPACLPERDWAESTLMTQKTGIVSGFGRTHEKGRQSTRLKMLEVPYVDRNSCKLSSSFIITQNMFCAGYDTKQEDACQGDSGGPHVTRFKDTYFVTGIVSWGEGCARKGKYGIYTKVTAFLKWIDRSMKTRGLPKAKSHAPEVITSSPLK

SMILES | Ki (Prothrombin) [µM] | Ki (Coagulation factor X) [µM] | Ki (Serine protease 1) [µM]
COC(=O)CC(CCc1cccc(C(=N)N)c1)c1cccc(C(=N)N)c1 (centres undefined) | 8.5 | 2.8 | 
COC(=O)CC(CCc1ccc(N=C(N)N)cc1)c1cccc(C(=N)N)c1 (centres undefined) | 3.1 | 0.009 | 0.096
COC(=O)CC(CCCCc1ccc(N=C(N)N)cc1)c1cccc(C(=N)N)c1 (centres undefined) | 3.3 | 0.057 | 0.76
N=C(N)c1ccc(CCC(CC(=O)O)c2cccc(C(=N)N)c2)cc1 (centres undefined) | > 4.2 |  | > 1.2
CCOC(=O)CC(CCc1cccc(C(=N)N)c1)c1ccc(C(=N)N)cc1 (centres undefined) | 3.43 | 1.64 | 
COC(=O)CC(CCc1ccc(NS(C)(=O)=O)cc1)c1cccc(C(=N)N)c1 (centres undefined) | 3.1 | 0.654 | 0.11
N=C(N)c1ccc(CCC(=O)c2cccc(C(=N)N)c2)cc1 | 4.4 | 5.1 | 
COC(=O)CC(CCc1ccc(C(=O)OC)cc1)c1cccc(C(=N)N)c1 (centres undefined) | 3.6 | 2.8 | 0.33
CCOC(=O)CC(CCc1ccc(C(=N)N)cc1)c1cccc(C(=N)N)c1 (centres undefined) | 1.1 | 0.042 | 0.11
CC(C)OC(=O)CC(CCc1ccc(C(=N)N)cc1)c1cccc(C(=N)N)c1 (centres undefined) | 1.54 | 0.192 | 0.14
COC(=O)CC(CCc1ccc(C(=N)N)cc1)c1cccc(C(=N)N)c1 (centres undefined) | 1.2 | 0.034 | 0.099
COC(=O)CC(CCc1ccc(C(N)=O)cc1)c1cccc(C(=N)N)c1 (centres undefined) | 6.5 | 0.55 | 0.87
COC(=O)CC(CCc1ccc(NS(=O)(=O)c2ccccc2)cc1)c1cccc(C(=N)N)c1 (centres undefined) | 1.75 | 1.1 | 0.61
CCOC(=O)CC(CCc1ccc(C(=N)N)cc1)c1ccc(C(=N)N)cc1 (centres undefined) | 1.2 | 22.9 | 
CCOC(=O)CC(CCc1ccc(C(=N)N)cc1)c1ccccc1 (centres undefined) | 6.2 | > 30 | 
COC(=O)CNC(=O)CC(CCc1ccc(C(=N)N)cc1)c1cccc(C(=N)N)c1 (centres undefined) | 12.6 | 2.4 | 
CNC(=O)CC(CCc1ccc(C(=N)N)cc1)c1cccc(C(=N)N)c1 (centres undefined) | 8 | 0.94 | 0.82
N=C(N)c1ccc(CCC(CC(=O)N2CCCC2)c2cccc(C(=N)N)c2)cc1 (centres undefined) | 2.8 | 1.15 | 0.44
COC(=O)CC(CCc1ccc(N)cc1)c1cccc(C(=N)N)c1 (centres undefined) | 7.7 | 5 | 1.2
CONC(=O)CC(CCc1ccc(C(=N)N)cc1)c1cccc(C(=N)N)c1 (centres undefined) | 19.6 | 2.4 | 
CCOC(=O)CC(CCc1ccccc1)c1cccc(C(=N)N)c1 (centres undefined) | > 2.1 | 2.9 | 
